{
  "source": "patent US20180125835A1",
  "about": "“Dosage and Use of an A2A Antagonist” (H. Lundbeck A/S, priority 2014, published 2018)",
  "molecular_target": "T1, A2B (Homo sapiens, UniProt P29275)",
  "T1 sequence (P29275 1-332)": "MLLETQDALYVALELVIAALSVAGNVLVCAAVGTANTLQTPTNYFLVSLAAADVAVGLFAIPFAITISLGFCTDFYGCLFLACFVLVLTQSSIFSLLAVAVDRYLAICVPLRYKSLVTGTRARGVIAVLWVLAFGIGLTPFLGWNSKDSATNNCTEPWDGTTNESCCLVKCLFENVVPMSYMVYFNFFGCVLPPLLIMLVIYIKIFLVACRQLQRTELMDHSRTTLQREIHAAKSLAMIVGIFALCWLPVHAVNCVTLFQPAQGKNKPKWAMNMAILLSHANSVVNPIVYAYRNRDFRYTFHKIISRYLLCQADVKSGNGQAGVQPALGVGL",
  "experiment": "Adenosine receptor binding affinity, human A2B",
  "data": [
    {"smiles": "Cc1ccc(C(=O)Nc2nc(-c3ccco3)c(C(=O)C3CCOCC3)s2)cn1", "note": "[Compound 504]", "values": [
      {"measurement": "Ki", "result": "33.8 ± 5.91", "unit": "nM"}
    ]}
  ]
}
